# From PubChem BioAssay AID1963851 (Molecular Pharmacology Branch, DTP, NCI, 2024)
# Test system: 188146-221-R-J1-PDC complex spheroid viability
# Assay: Anticancer human tumor 188146-221-R-J1-PDC patient-derived colon adenocarcinoma cell line growth inhibition [POLQ]
# Conditions: for IC50: curve of first compound; for viability, T/C: stronger effect = lower value
# In short: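 Growth inhibition in 3D: complex spheroids (tumor PDC, HUVEC, MSC) treated with POLQ inhibitor combinations; where Cmax unknown, highest tested concentration 10 microM, except SN-38 at 1 microM.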
# [1] = second compound 0.0316 µM, first compound 0.0316 µM
# [2] = second compound 0.0316 µM, first compound 0.1 µM
# [3] = second compound 0.0316 µM, first compound 0.316 µM
# [4] = second compound 0.0316 µM, first compound 1 µM
# [5] = second compound 0.0316 µM, first compound 3.16 µM
# [6] = second compound 0.0316 µM, first compound 10 µM
# [7] = second compound 0.1 µM, first compound 0.0316 µM
# [8] = second compound 0.1 µM, first compound 0.1 µM
# [9] = second compound 0.1 µM, first compound 0.316 µM
# [10] = second compound 0.1 µM, first compound 1 µM
# [11] = second compound 0.1 µM, first compound 3.16 µM
# [12] = second compound 0.1 µM, first compound 10 µM
# [13] = second compound 0.316 µM, first compound 0.0316 µM
# [14] = second compound 0.316 µM, first compound 0.1 µM
# [15] = second compound 0.316 µM, first compound 0.316 µM
# [16] = second compound 0.316 µM, first compound 1 µM
# [17] = second compound 0.316 µM, first compound 3.16 µM
# [18] = second compound 0.316 µM, first compound 10 µM
# [19] = second compound 1 µM, first compound 0.0316 µM
# [20] = second compound 1 µM, first compound 0.1 µM
# [21] = second compound 1 µM, first compound 0.316 µM
# [22] = second compound 1 µM, first compound 1 µM
# [23] = second compound 1 µM, first compound 3.16 µM
# [24] = second compound 1 µM, first compound 10 µM
# [25] = second compound 3.16 µM, first compound 0.0316 µM
# [26] = second compound 3.16 µM, first compound 0.1 µM
# [27] = second compound 3.16 µM, first compound 0.316 µM
# [28] = second compound 3.16 µM, first compound 1 µM
# [29] = second compound 3.16 µM, first compound 3.16 µM
# [30] = second compound 3.16 µM, first compound 10 µM
# [31] = second compound 10 µM, first compound 0.0316 µM
# [32] = second compound 10 µM, first compound 0.1 µM
# [33] = second compound 10 µM, first compound 0.316 µM
# [34] = second compound 10 µM, first compound 1 µM
# [35] = second compound 10 µM, first compound 3.16 µM
# [36] = second compound 10 µM, first compound 10 µM
# 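Also: spheroids exposed to compounds for seven days.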
# 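For viability, T/C in this document: 100% = DMSO vehicle control viability.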
structure (smiles),measurement,setting,value
C#Cc1c(F)ccc2cc(O)cc(-c3ncc4c(N5CC6CCC(C5)N6)nc(OCC56CCCN5CC(F)C6)nc4c3F)c12 (stereo unspecified) + Nc1ccc(C#CCN(C(=O)Cc2ncc(C(F)(F)F)cc2C(F)(F)F)c2ccc(F)cc2)nn1,IC50,second compound 0.0316 µM,> 10 µM
same,IC50,second compound 0.1 µM,> 10 µM
same,IC50,second compound 0.316 µM,> 10 µM
same,IC50,second compound 1 µM,> 10 µM
same,IC50,second compound 3.16 µM,> 10 µM
same,IC50,second compound 10 µM,> 10 µM
same,"viability, T/C",[1],94.3%
same,"viability, T/C",[2],100%
same,"viability, T/C",[3],98.2%
same,"viability, T/C",[4],89.7%
same,"viability, T/C",[5],83.2%
same,"viability, T/C",[6],89.4%
same,"viability, T/C",[7],99.9%
same,"viability, T/C",[8],105%
same,"viability, T/C",[9],95.5%
same,"viability, T/C",[10],95.1%
same,"viability, T/C",[11],89.9%
same,"viability, T/C",[12],103%
same,"viability, T/C",[13],103%
same,"viability, T/C",[14],83.5%
same,"viability, T/C",[15],100%
same,"viability, T/C",[16],96.8%
same,"viability, T/C",[17],87.8%
same,"viability, T/C",[18],86.6%
same,"viability, T/C",[19],88.6%
same,"viability, T/C",[20],86.7%
same,"viability, T/C",[21],98.8%
same,"viability, T/C",[22],92.3%
same,"viability, T/C",[23],91.3%
same,"viability, T/C",[24],80.8%
same,"viability, T/C",[25],106%
same,"viability, T/C",[26],102%
same,"viability, T/C",[27],102%
same,"viability, T/C",[28],95.9%
same,"viability, T/C",[29],100%
same,"viability, T/C",[30],86.5%
same,"viability, T/C",[31],102%
same,"viability, T/C",[32],93.5%
same,"viability, T/C",[33],87.1%
same,"viability, T/C",[34],105%
same,"viability, T/C",[35],106%
same,"viability, T/C",[36],89.5%
C=CC(=O)N1CCN(c2nc(=O)n(-c3c(C)ccnc3C(C)C)c3nc(-c4c(O)cccc4F)c(F)cc23)C(C)C1 (stereo unspecified) + Nc1ccc(C#CCN(C(=O)Cc2ncc(C(F)(F)F)cc2C(F)(F)F)c2ccc(F)cc2)nn1,IC50,second compound 0.0316 µM,> 10 µM
same,IC50,second compound 0.1 µM,> 10 µM
same,IC50,second compound 0.316 µM,> 10 µM
same,IC50,second compound 1 µM,> 10 µM
same,IC50,second compound 3.16 µM,> 10 µM
same,IC50,second compound 10 µM,> 10 µM
same,"viability, T/C",[1],104%
same,"viability, T/C",[2],107%
same,"viability, T/C",[3],103%
same,"viability, T/C",[4],96.5%
same,"viability, T/C",[5],104%
same,"viability, T/C",[6],84.9%
same,"viability, T/C",[7],95.7%
same,"viability, T/C",[8],108%
same,"viability, T/C",[9],101%
same,"viability, T/C",[10],102%
same,"viability, T/C",[11],120%
same,"viability, T/C",[12],85.6%
same,"viability, T/C",[13],104%
same,"viability, T/C",[14],99.2%
same,"viability, T/C",[15],109%
same,"viability, T/C",[16],82.2%
same,"viability, T/C",[17],104%
same,"viability, T/C",[18],78%
same,"viability, T/C",[19],108%
same,"viability, T/C",[20],91.6%
same,"viability, T/C",[21],92.6%
same,"viability, T/C",[22],113%
same,"viability, T/C",[23],97.4%
same,"viability, T/C",[24],103%
same,"viability, T/C",[25],96.8%
same,"viability, T/C",[26],108%
same,"viability, T/C",[27],92.4%
same,"viability, T/C",[28],104%
same,"viability, T/C",[29],97.5%
same,"viability, T/C",[30],101%
same,"viability, T/C",[31],101%
same,"viability, T/C",[32],104%
same,"viability, T/C",[33],107%
same,"viability, T/C",[34],107%
same,"viability, T/C",[35],98.1%
same,"viability, T/C",[36],96.4%
CC(C)n1c(=O)n(C)c2cnc3cc(F)c(-c4ccc(OCCCN5CCCCC5)nc4)cc3c21 + Nc1ccc(C#CCN(C(=O)Cc2ncc(C(F)(F)F)cc2C(F)(F)F)c2ccc(F)cc2)nn1,IC50,second compound 0.0316 µM,> 10 µM
same,IC50,second compound 0.1 µM,> 10 µM
same,IC50,second compound 0.316 µM,> 10 µM
same,IC50,second compound 1 µM,> 10 µM
same,IC50,second compound 3.16 µM,> 10 µM
same,IC50,second compound 10 µM,> 10 µM
same,"viability, T/C",[1],87.3%
same,"viability, T/C",[2],106%
same,"viability, T/C",[3],95.4%
same,"viability, T/C",[4],97.9%
same,"viability, T/C",[5],83.6%
same,"viability, T/C",[6],80.7%
same,"viability, T/C",[7],101%
same,"viability, T/C",[8],107%
same,"viability, T/C",[9],94.9%
same,"viability, T/C",[10],92.2%
same,"viability, T/C",[11],92.6%
same,"viability, T/C",[12],83.7%
same,"viability, T/C",[13],94.8%
same,"viability, T/C",[14],94.7%
same,"viability, T/C",[15],89.4%
same,"viability, T/C",[16],96.8%
same,"viability, T/C",[17],103%
same,"viability, T/C",[18],80.9%
same,"viability, T/C",[19],104%
same,"viability, T/C",[20],101%
same,"viability, T/C",[21],88%
same,"viability, T/C",[22],88.9%
same,"viability, T/C",[23],93.7%
same,"viability, T/C",[24],86.9%
same,"viability, T/C",[25],99%
same,"viability, T/C",[26],98.3%
same,"viability, T/C",[27],99.5%
same,"viability, T/C",[28],84.2%
same,"viability, T/C",[29],95.3%
same,"viability, T/C",[30],87.8%
same,"viability, T/C",[31],105%
same,"viability, T/C",[32],95.5%
same,"viability, T/C",[33],98.4%
same,"viability, T/C",[34],96.6%
same,"viability, T/C",[35],97.9%
same,"viability, T/C",[36],84.1%
